# Results from paper PMC3161871, “Heteroarylketones inhibit astroglial interleukin-6 expression via a STAT3/NF-κB signaling pathway” (Journal of Neuroinflammation, 2011).
# How the values were obtained:
# [1] = system: IL-6 mRNA expression in U343 cells; assay: OSM-induced IL-6 mRNA expression in U343 cells (qRT-PCR time course); assay type: cell-based, human; settings: 20 μM compound
# Method: The human glioma cell line U343 [34] was maintained in DMEM containing 10% fetal bovine serum and 60 μg/ml gentamycin (Invitrogen, Darmstadt, Germany) at 37°C in a 10% CO2 atmosphere.
# Total RNA of cultured cells and homogenized mouse brain tissue samples was isolated using RNA isolation kit "NucleoSpin RNA II" from Macherey and Nagel. RNA quantity was measured by spectrophotometrical quantification (NanoDrop 2000, Peqlab, Erlangen, Germany). Total RNA (0.5 μg) was transcribed to cDNA using Superscript III and oligo-dT primer (Invitrogen, Darmstadt, Germany). Quantitative real-time PCR was performed with QuantiFast SYBR Green PCR Master mix (Qiagen, Hilden, Germany) using Rotorgene 3000 system (Corbett, Sydney, Australia). Gene expression was normalized to the expression of three reference genes glyceraldehyde 3-phosphate dehydrogenase (GAPDH), glucose-6-phosphate dehydrogenase (G6PDH) and hypoxanthine-guanine phosphoribosyltransferase (HPRT). Primers for PREP (5'-[…]-3'; 5'- […]-3') and IL-6 (5'-AAAGGACGTCACATTGCA-3'; 5'-[…]-3') were designed using the Primer3 Software (http://frodo.wi.mit.edu/). Data were analyzed by Rotorgene 3000 Software version 6.0 by comparative quantitation. The appropriate size of PCR products was confirmed by gel-electrophoresis stained with ethidium bromide.
# To analyze the time-course of OSM-induced IL-6 expression, U343 cells were incubated with OSM for different periods of time as indicated in figure 1B. Amounts of IL-6 mRNA and protein were subsequently quantified by qRT-PCR and by ELISA, respectively. […] Significant induction of IL-6 protein was detected in the conditioned medium as early as 3 h post stimulation and reaching a maximum at 24 h.
# To reveal whether bioactivity of HAK compounds is based on suppression of IL-6 protein biosynthesis or on interference with IL-6 mRNA expression OSM-treated U343 cells were incubated with 20 μM of compound HAK-2 for different periods of time. […] Therefore, it is very likely that the relevant molecular target of HAK compounds is involved in the OSM-induced signal transduction process not earlier than 6 h after onset of the stimulation.
# Figure 4 Time course of OSM-induced IL-6 mRNA expression in U343 cells treated with compound HAK-2. […] U343 cells were stimulated with 100 ng/ml OSM and treated with 0.1% DMSO as solvent control (solid line, black triangle) or 20 μM HAK-2 (dashed line, white triangle). Samples were harvested at time points indicated to extract total RNA. IL-6 mRNA expression was analyzed by qRT-PCR. All data points are presented as mean ± SD, and were obtained from experiments carried out in quadruplicate. Statistical analysis were performed between control and HAK-2 samples from same time point. ns, not significant; ***p < 0.001.
# [2] = system: LPS-induced IL-6 release in primary rat astrocytes; assay: LPS-induced IL-6 release in primary rat astrocytes (ELISA); assay type: cell-based; settings: 1 μg/ml LPS, 20 μM compound, 24 h
# Method: According to Löffler, astrocyte-rich primary cell cultures were started with brains of newborn mice and rats and were maintained in Dulbecco's modified Eagle's medium (DMEM) for 33 days at 37°C in a humified atmosphere with 95% air/5% CO2.
# Measurements of IL-6 in conditioned medium and murine plasma samples were done by means of human- or murine-specific IL-6 Cytoset kits (Invitrogen, Darmstadt, Germany) according to manufacturer's protocols.
# Figure 5 Suppression of LPS-induced IL-6 release in primary murine astrocytes by selected HAK compounds. […] Astrocytes derived from newborn mice and rats were cultivated for 33 days followed by stimulation with 1 μg/ml LPS and treatment with compounds HAK-2 and HAK-5 (20 μM). After 24 hours conditioned media were analyzed with IL-6 specific ELISA. Data (mean ± SD) were obtained from experiments carried out in quadruplicate and statistical analysis was performed using the paired t test. Amount of IL-6 in LPS-treated control sample was set to 100%. ns, not significant; **p < 0.01; ***p < 0.001.
# Primary murine astrocytes stimulated with 1 μg/ml LPS were co-treated with compounds HAK-2 and HAK-5 at a concentration of 20 μM each for 24 h. The observed effect of compounds HAK-2 and HAK-5 on LPS stimulation was similar to that of OSM-induced IL-6 expression in human U343 glioma cells (Figures 5A and 5B). […]
compound,measurement,setting,value
"C[C@H](NC(=O)OCc1ccccc1)C(=O)N1CCC[C@H]1C(=O)c1nc2ccccc2s1 [HAK-2, Z-Ala-Pro-BTh]",Inhibition of OSM-induced IL-6 mRNA expression (time course),[1]; 100 ng/ml OSM,strong inhibition
same,Effect on second IL-6 mRNA expression peak,"[1]; 100 ng/ml OSM, 6 h post stimulation",completely suppresses
same,Effect on first IL-6 mRNA peak,[1]; 1 h post OSM stimulation,insensitive
same,Reduction of LPS-induced IL-6 expression,[2],50%
